Assays:
wheat [1] = test: Test C postemergence; type: in vivo, Triticum aestivum; settings: postemergence, 10 days
Procedure, shortened: (§1)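 Greenhouse herbicide screen, 10-day duration. Test chemicals in solvent/surfactant blend were sprayed onto soil at sowing (pre) or onto 2–10 cm seedlings at one to two leaves (post); injury scored visually against controls, 0 no effect to 100 complete control.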

ryegrass, Italian [2] = test: Test C postemergence; type: in vivo, Lolium multiflorum; settings: postemergence, 10 days
Procedure, shortened: as §1

foxtail, giant [3] = test: Test C postemergence; type: in vivo, Setaria faberi; settings: postemergence, 10 days
Procedure, shortened: as §1

soybean [4] = test: Test C preemergence; type: in vivo, Glycine max; settings: preemergence, 0 to 100 scale (0 no effect, 100 complete control)
Procedure, shortened: as §1

pigweed, palmer [5] = test: Test C postemergence; type: in vivo, Amaranthus palmeri; settings: postemergence, 10 days
Procedure, shortened: as §1

goosegrass [6] = test: Test C postemergence; type: in vivo, Eleusine indica; settings: postemergence, 10 days
From the text: (§2) Seeds of plant species selected from barnyardgrass (Echinochloa crusgalli), blackgrass (Alopecurus myosuroides), corn (Zea mays), foxtail, giant (giant foxtail, Setaria faberi), green foxtail (Setaria viridis), goosegrass (Eleusine indica), kochia (Bassia scoparia), oat, wild (wild oat, Avena fatua), pigweed, palmer (palmer amaranth, palmer pigweed, Amaranthus palmeri), Pigweed, Redroot (redroot pigweed, Amaranthus retroflexus), ragweed (common ragweed, Ambrosia artemisiifolia), ryegrass, Italian ([…] ryegrass, Lolium multiflorum), soybean (Glycine max), and wheat (Triticum aestivum) were planted into a blend of loam soil and sand and treated preemergence with a directed soil spray using test chemicals formulated in a non-phytotoxic solvent mixture which included a surfactant. At the same time, plants selected from these crops and weed species and also galium (catchweed bedstraw, Galium aparine) and horseweed (Erigeron canadensis) were planted in pots containing the same blend of loam soil and sand and treated with postemergence applications of test chemicals formulated in the same manner. Plants ranged in height from 2 to 10 cm and were in the one- to two-leaf stage for the postemergence treatment. Treated plants and untreated controls were maintained in a greenhouse for 10 days, after which time all treated plants were compared to untreated controls and visually evaluated for injury. Plant response ratings, summarized in Table C, are based on a 0 to 100 scale where 0 is no effect and 100 is complete control. A dash (-) response means no test result.

goosegrass [7] = test: Test C preemergence; type: in vivo, Eleusine indica; settings: preemergence, 0 to 100 scale (0 no effect, 100 complete control)
From the text: as §2

soybean [8] = test: Test C postemergence; type: in vivo, Glycine max; settings: postemergence, 10 days
Procedure, shortened: as §1

ragweed [9] = test: Test C preemergence; type: in vivo, Ambrosia artemisiifolia; settings: preemergence, 0 to 100 scale (0 no effect, 100 complete control)
Procedure, shortened: as §1

oat, wild [10] = test: Test C postemergence; type: in vivo, Avena fatua; settings: postemergence, 10 days
Procedure, shortened: as §1

kochia [11] = test: Test C postemergence; type: in vivo, Bassia scoparia; settings: postemergence, 10 days
Procedure, shortened: as §1

sedge, umbrella = test: Test D flooded paddy test; type: in vivo, Cyperus difformis; settings: 250 g ai/ha, applied to paddy water, visual rating after 13 to 14 days, scale 0 to 100 (0 no effect, 100 complete control)
Procedure, shortened: (§3)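 2-leaf plants; flood 3 cm above soil; compound dosed into paddy water; greenhouse 13–14 d; visual rating vs controls, 0–100 (100 = complete control); dash = not tested.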

corn [12] = test: Test C preemergence; type: in vivo, Zea mays; settings: preemergence, 0 to 100 scale (0 no effect, 100 complete control)
Procedure, shortened: as §1

barnyardgrass = test: Test D flooded paddy test; type: in vivo, Echinochloa crus-galli; settings: 250 g ai/ha, applied to paddy water, visual rating after 13 to 14 days, scale 0 to 100 (0 no effect, 100 complete control)
Procedure, shortened: as §3

pigweed, palmer [13] = test: Test C preemergence; type: in vivo, Amaranthus palmeri; settings: preemergence, 0 to 100 scale (0 no effect, 100 complete control)
Procedure, shortened: as §1

horseweed = test: Test C postemergence; type: in vivo, Erigeron canadensis; settings: postemergence, 10 days
Procedure, shortened: as §1

oat, wild [14] = test: Test C preemergence; type: in vivo, Avena fatua; settings: preemergence, 0 to 100 scale (0 no effect, 100 complete control)
Procedure, shortened: as §1

ragweed [15] = test: Test C postemergence; type: in vivo, Ambrosia artemisiifolia; settings: postemergence, 10 days
Procedure, shortened: as §1

ducksalad = test: Test D flooded paddy test; type: in vivo, Heteranthera limosa; settings: 250 g ai/ha, applied to paddy water, visual rating after 13 to 14 days, scale 0 to 100 (0 no effect, 100 complete control)
Procedure, shortened: as §3

wheat [16] = test: Test C preemergence; type: in vivo, Triticum aestivum; settings: preemergence, 0 to 100 scale (0 no effect, 100 complete control)
Procedure, shortened: as §1

kochia [17] = test: Test C preemergence; type: in vivo, Bassia scoparia; settings: preemergence, 0 to 100 scale (0 no effect, 100 complete control)
Procedure, shortened: as §1

ryegrass, Italian [18] = test: Test C preemergence; type: in vivo, Lolium multiflorum; settings: preemergence, 0 to 100 scale (0 no effect, 100 complete control)
Procedure, shortened: as §1

rice = test: Test D flooded paddy test; type: in vivo, Oryza sativa; settings: 250 g ai/ha, applied to paddy water, visual rating after 13 to 14 days, scale 0 to 100 (0 no effect, 100 complete control)
Procedure, shortened: as §3

galium = test: Test C postemergence; type: in vivo, Galium aparine; settings: postemergence, 10 days
Procedure, shortened: as §1

blackgrass [19] = test: Test C preemergence; type: in vivo, Alopecurus myosuroides; settings: preemergence, 0 to 100 scale (0 no effect, 100 complete control)
Procedure, shortened: as §1

corn [20] = test: Test C postemergence; type: in vivo, Zea mays; settings: postemergence, 10 days
Procedure, shortened: as §1

foxtail, giant [21] = test: Test C preemergence; type: in vivo, Setaria faberi; settings: preemergence, 0 to 100 scale (0 no effect, 100 complete control)
Procedure, shortened: as §1

blackgrass [22] = test: Test C postemergence; type: in vivo, Alopecurus myosuroides; settings: postemergence, 10 days
Procedure, shortened: as §1

[23] = 125 g ai/ha, 0 to 100 scale, 0 no effect, 100 complete control
[24] = 500 g ai/ha, 0 to 100 scale (0 no effect, 100 complete control)

## Cc1cccc2c1O[C@@H](C)CN2C(=O)c1cccc(-n2cnc(C#C[Si](C)(C)C)n2)c1 [Compound 284]
Wheat [1]; [23]
  Plant response rating, Wheat: 10
Wheat [1]; [24]
  Plant response rating, Wheat: 10
ryegrass, Italian [2]; [23]
  Plant response rating, Ryegrass, Italian: 0
ryegrass, Italian [2]; [24]
  Plant response rating, Ryegrass, Italian: 0
foxtail, giant [3]; [23]
  Plant response rating, Foxtail, Giant: 10
foxtail, giant [3]; [24]
  Plant response rating, Foxtail, Giant: 20
Soybean [4]; 500 g ai/ha
  Soybean plant response rating: 0
Soybean [4]; Test C, 125 g ai/ha
  Soybean plant response rating: 0
pigweed, palmer [5]; [23]
  Plant response rating, Pigweed, Palmer: 40
pigweed, palmer [5]; [24]
  Plant response rating, Pigweed, Palmer: 60
Goosegrass [6]; [23]
  Plant response rating, Goosegrass: 10
Goosegrass [6]; [24]
  Plant response rating, Goosegrass: 30
Goosegrass [7]; 500 g ai/ha
  Goosegrass plant response rating: 90
Goosegrass [7]; Test C, 125 g ai/ha
  Goosegrass plant response rating: 10
Soybean [8]; [23]
  Plant response rating, Soybean: 20
Soybean [8]; [24]
  Plant response rating, Soybean: 30
Ragweed [9]; 500 g ai/ha
  Ragweed plant response rating: 0
Ragweed [9]; Test C, 125 g ai/ha
  Ragweed plant response rating: 0
oat, wild [10]; [23]
  Plant response rating, Oat, Wild: 10
oat, wild [10]; [24]
  Plant response rating, Oat, Wild: 10
Kochia [11]; [23]
  Plant response rating, Kochia: 10
Kochia [11]; [24]
  Plant response rating, Kochia: 50
sedge, umbrella
  Plant response rating, Sedge, Umbrella (Flood): 0
Corn [12]; 500 g ai/ha
  Corn plant response rating: 0
Corn [12]; Test C, 125 g ai/ha
  Corn plant response rating: 0
barnyardgrass
  Plant response rating, Barnyardgrass (Flood): 0
pigweed, palmer [13]; 500 g ai/ha
  Pigweed, Palmer plant response rating: 0
pigweed, palmer [13]; Test C, 125 g ai/ha
  Pigweed, Palmer plant response rating: 0
horseweed; [23]
  Plant response rating, Horseweed: 0
horseweed; [24]
  Plant response rating, Horseweed: 50
oat, wild [14]; 500 g ai/ha
  Oat, Wild plant response rating: 70
oat, wild [14]; Test C, 125 g ai/ha
  Oat, Wild plant response rating: 20
Ragweed [15]; [23]
  Plant response rating, Ragweed: 0
Ragweed [15]; [24]
  Plant response rating, Ragweed: 0
ducksalad
  Plant response rating, Ducksalad (Flood): 65
Wheat [16]; 500 g ai/ha
  Wheat plant response rating: 10
Wheat [16]; Test C, 125 g ai/ha
  Wheat plant response rating: 0
Kochia [17]; 500 g ai/ha
  Kochia plant response rating: 10
Kochia [17]; Test C, 125 g ai/ha
  Kochia plant response rating: 0
ryegrass, Italian [18]; 500 g ai/ha
  Ryegrass, Italian plant response rating: 90
ryegrass, Italian [18]; Test C, 125 g ai/ha
  Ryegrass, Italian plant response rating: 50
rice
  Plant response rating, Rice (Flood): 0
galium; [23]
  Plant response rating, Galium: 70
galium; [24]
  Plant response rating, Galium: 90
Blackgrass [19]; 500 g ai/ha
  Blackgrass plant response rating: 60
Blackgrass [19]; Test C, 125 g ai/ha
  Blackgrass plant response rating: 0
Corn [20]; [23]
  Plant response rating, Corn: 0
Corn [20]; [24]
  Plant response rating, Corn: 10
foxtail, giant [21]; 500 g ai/ha
  Foxtail, Giant plant response rating: 90
foxtail, giant [21]; Test C, 125 g ai/ha
  Foxtail, Giant plant response rating: 0
Blackgrass [22]; [23]
  Plant response rating, Blackgrass: 0
Blackgrass [22]; [24]
  Plant response rating, Blackgrass: 40

From patent US20260262643A1, “HERBICIDAL BENZOXAZINES” (FMC CORPORATION, priority 2022, published 2026)
